Measured values as given in patent US20110207745A1 (priority 2009, published 2011).

Experiments:
[1] = Dissociation constant (pKa); format: physicochemical; conditions: piperazine nitrogen of free base
[2] = Partition coefficient LogD; format: physicochemical; conditions: pH 7.4; free base
rat = experiment: Punished responding procedure (modified Geller-Seifter conflict test); conditions: for Rate of Responding: Punished responding / Rate of Responding: Unpunished responding: 60 minute pretreatment
Description: Method. In the conflict test, hungry animals were trained to lever-press for food delivery in a standard operant chamber under 2 conditions. In the first condition, referred to as the unsuppressed component, food was delivered on average after 17 lever-presses were made (also called a VR17 schedule of reinforcement). In the second condition, referred to as the suppressed component and signaled by flashing lights inside the operant chamber, food was also delivered following an average of 17 lever-presses, but electric shock was additionally delivered to the floor of the cage under a separate VR17 schedule. Daily sessions consisted of 5 alternating presentations of each component type: suppressed (3 minutes in duration) and unsuppressed (2 minutes in duration). The number of lever presses emitted in the suppressed component was obviously low relative to the unsuppressed component.
Drug Administration and Preparation. […] Monday and Wednesday were washout/baseline days.
Apparatus. Standard 2-lever operant chambers were used (Med Associates). The chambers were fitted with 2 retractable response levers and a stimulus lamp over each of the 2 levers. A pellet dispenser delivered 45 mg food pellets, (Bio Serv) to a cup located inside of the chamber below and between the 2 response levers. A lamp at the top and back of the chamber served as houselights. The grid floors of the operant chambers were interfaced to shock generators and scramblers (Med Associates). All events in the chambers were controlled and monitored by a microprocessor.
Procedures. There were 2 components in the procedure: 1) an unsuppressed responding component (unpunished) with 2 minutes in duration; and 2) a suppressed responding component (punished) with 3 minutes in duration.
In the unpunished component, the houselights and both stimulus lamps over the response levers were turned on, the lever on the left-hand side of the chamber extended, and a food pellet was delivered following an average of 17 responses on the lever in the chamber (range 3 to 40 responses)—a variable-ratio 17 schedule (VR17).
In the punished component (which followed the unpunished component), the right-hand lever was extended into the chamber; the stimulus lamps and houselights were turned on and off at 1 second intervals, in succession, which served as a cue for this component; and food was available under a VR17 schedule, but was accompanied by an electrical current (0.5 second duration) that was delivered to the grid floor of the chamber under an independent VR17 schedule. The level of the current was adjusted for each individual subject until responding was reduced in the punished component to a level that was about 5% to 10% that of the unpunished component, and ranged from 0.2 mA to 0.75 mA. Unpunished and punished components were separated by 10 second time-out periods in which both response levers were retracted and all stimulus lamps turned off. 2 minute unpunished and 3 minute punished components alternated until 5 of each were completed. Daily sessions always began with the unpunished responding component. […] Several doses were tested on a given test day in different subjects. Each dose, then, was tested in different sub-set of rats.
Data Analysis. The dependent variables recorded were the rate of responding in unpunished and punished components (total responses/total time under the component) and the number of shocks delivered.

For `CCN(CC)C(=O)c1ccc([C@H](c2cccc(N)c2)N2CCN(Cc3ccc(F)cc3)CC2)cc1` [Compound A1, 4-{(R)-(3-aminophenyl)[4-(4-fluorobenzyl)piperazin-1-yl]methyl}-N,N-diethylbenzamide], the pKa [1] was 7.26, the logD [2] was 2.53 and the sedative/hyperactive properties (rat; observations of test subjects in their home cage) was “does not possess sedative/hyperactive properties”. For the same compound, the “efficacy in the model” value (rat; rat, 0.21 μmol/kg) was “not effective”, the “Percent of Control: Punished responding” value (rat; rat, 0.21 μmol/kg by mouth) was 107 ± 19.3% of Control and the “Percent of Control: Unpunished responding” value (rat; rat, 0.21 μmol/kg by mouth) was 103 ± 1.63% of Control. The “Rate of Responding: Punished responding” value (rat; rat, 0.21 μmol/kg by mouth) was 0.11 ± 0.02, the “Rate of Responding: Unpunished responding” value (“Rate … Unpunished responding” below) (rat; rat, 0.21 μmol/kg by mouth) was 2.06 ± 0.11 and the “Percent of Control: Punished responding” value (rat; rat, 0.63 μmol/kg by mouth) was 273 ± 39.2% of Control. The “Percent of Control: Unpunished responding” value (rat; rat, 0.63 μmol/kg by mouth) was 92.1 ± 5.12% of Control, the “Rate of Responding: Punished responding” value (rat; rat, 0.63 μmol/kg by mouth) was 0.24 ± 0.03 and the “Rate … Unpunished responding” value (rat; rat, 0.63 μmol/kg by mouth) was 2.02 ± 0.14. For the same compound, the “Percent of Control: Punished responding” value (rat; rat, 2.1 μmol/kg by mouth) was 298 ± 132% of Control, the “Percent of Control: Unpunished responding” value (rat; rat, 2.1 μmol/kg by mouth) was 106 ± 5.60% of Control and the “Rate of Responding: Punished responding” value (rat; rat, 2.1 μmol/kg by mouth) was 0.18 ± 0.04. For the same compound, the “Rate … Unpunished responding” value (rat; rat, 2.1 μmol/kg by mouth) was 1.95 ± 0.15, the “increase in punished responding (maximally efficacious dose)” value (rat; rat, 2.11 μmol/kg) was “about 300%” and the “Percent of Control: Punished responding” value (rat; rat, 6.3 μmol/kg by mouth) was 207 ± 67.2% of Control. For the same compound, the “Percent of Control: Unpunished responding” value (rat; rat, 6.3 μmol/kg by mouth) was 106 ± 2.94% of Control, the “Rate of Responding: Punished responding” value (rat; rat, 6.3 μmol/kg by mouth) was 0.17 ± 0.03 and the “Rate … Unpunished responding” value (rat; rat, 6.3 μmol/kg by mouth) was 1.92 ± 0.13. For the same compound, the “Percent of Control: Punished responding” value (rat; rat, 21.1 μmol/kg by mouth) was 272 ± 100% of Control, the “Percent of Control: Unpunished responding” value (rat; rat, 21.1 μmol/kg by mouth) was 95.5 ± 4.08% of Control and the “Rate of Responding: Punished responding” value (rat; rat, 21.1 μmol/kg by mouth) was 0.20 ± 0.04. For the same compound, the “Rate … Unpunished responding” value (rat; rat, 21.1 μmol/kg by mouth) was 1.69 ± 0.12 and the “effect on unpunished responding” value (rat; rat, at the doses tested (0.21 to 21.1 μmol/kg)) was “did not significantly decrease”.
